# Source: ChEMBL document CHEMBL4359858, “Potently inhibiting cancer cell migration with novel 3H-pyrazolo[4,3-f]quinoline boronic acid ROCK inhibitors” (Eur J Med Chem, 2019)
# Calls of active or inactive are those of the source. No cut-off for these calls is given here.
# Columns and labels:
# [1] = molecular target: T1, Rho-associated protein kinase 2 (Homo sapiens, UniProt O75116); assay: Inhibition of active ROCK2 (R11-11G) (unknown origin) at 100 nM using S6K as substrate incubated for 3 hrs by ADP-Glo kinase assay relative to control
# Target sequence in this assay (O75116 whole entry, looked up, the tested form may be a part): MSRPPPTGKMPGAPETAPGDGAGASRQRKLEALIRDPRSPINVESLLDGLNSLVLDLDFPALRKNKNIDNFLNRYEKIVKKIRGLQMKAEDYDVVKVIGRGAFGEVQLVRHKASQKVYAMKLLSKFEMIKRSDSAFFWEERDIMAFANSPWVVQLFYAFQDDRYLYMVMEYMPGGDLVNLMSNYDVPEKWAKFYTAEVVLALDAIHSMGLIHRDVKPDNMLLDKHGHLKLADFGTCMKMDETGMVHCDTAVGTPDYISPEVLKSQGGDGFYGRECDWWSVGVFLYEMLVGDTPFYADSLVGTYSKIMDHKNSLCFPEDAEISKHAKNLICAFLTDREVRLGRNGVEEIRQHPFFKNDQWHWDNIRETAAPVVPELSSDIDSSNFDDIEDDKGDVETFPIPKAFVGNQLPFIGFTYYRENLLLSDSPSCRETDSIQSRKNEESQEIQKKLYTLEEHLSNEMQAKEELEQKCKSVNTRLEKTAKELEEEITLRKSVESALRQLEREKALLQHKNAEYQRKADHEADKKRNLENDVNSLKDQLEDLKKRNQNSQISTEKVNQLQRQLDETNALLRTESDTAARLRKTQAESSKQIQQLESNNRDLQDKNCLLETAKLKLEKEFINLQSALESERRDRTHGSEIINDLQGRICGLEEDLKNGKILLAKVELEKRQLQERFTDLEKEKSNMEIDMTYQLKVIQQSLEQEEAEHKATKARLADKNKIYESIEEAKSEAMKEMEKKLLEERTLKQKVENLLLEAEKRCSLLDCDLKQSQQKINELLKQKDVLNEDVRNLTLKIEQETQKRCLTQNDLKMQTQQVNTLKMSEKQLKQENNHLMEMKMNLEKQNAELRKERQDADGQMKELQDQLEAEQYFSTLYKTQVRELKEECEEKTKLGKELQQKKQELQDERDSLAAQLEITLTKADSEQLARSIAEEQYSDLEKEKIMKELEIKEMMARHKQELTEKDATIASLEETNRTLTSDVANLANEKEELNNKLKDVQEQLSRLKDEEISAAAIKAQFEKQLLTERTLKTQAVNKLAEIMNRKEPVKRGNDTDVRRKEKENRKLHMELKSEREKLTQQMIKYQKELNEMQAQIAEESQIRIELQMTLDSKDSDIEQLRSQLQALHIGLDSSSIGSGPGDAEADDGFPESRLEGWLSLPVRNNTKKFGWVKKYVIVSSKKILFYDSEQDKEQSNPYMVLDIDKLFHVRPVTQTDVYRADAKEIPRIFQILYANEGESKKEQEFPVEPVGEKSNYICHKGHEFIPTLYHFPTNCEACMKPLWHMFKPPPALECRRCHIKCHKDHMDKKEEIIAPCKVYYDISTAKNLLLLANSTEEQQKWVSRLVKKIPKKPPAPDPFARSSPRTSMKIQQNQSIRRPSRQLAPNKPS
# [2] = molecular target: T2, Rho-associated protein kinase 1 (Homo sapiens, UniProt Q13464); assay: Inhibition of recombinant human GST-tagged ROCK1 (1 to 535 residues) using myelin basic protein as substrate incubated for 30 mins by ADP-Glo assay
# T2 sequence (Q13464 whole entry, the tested form may be a part): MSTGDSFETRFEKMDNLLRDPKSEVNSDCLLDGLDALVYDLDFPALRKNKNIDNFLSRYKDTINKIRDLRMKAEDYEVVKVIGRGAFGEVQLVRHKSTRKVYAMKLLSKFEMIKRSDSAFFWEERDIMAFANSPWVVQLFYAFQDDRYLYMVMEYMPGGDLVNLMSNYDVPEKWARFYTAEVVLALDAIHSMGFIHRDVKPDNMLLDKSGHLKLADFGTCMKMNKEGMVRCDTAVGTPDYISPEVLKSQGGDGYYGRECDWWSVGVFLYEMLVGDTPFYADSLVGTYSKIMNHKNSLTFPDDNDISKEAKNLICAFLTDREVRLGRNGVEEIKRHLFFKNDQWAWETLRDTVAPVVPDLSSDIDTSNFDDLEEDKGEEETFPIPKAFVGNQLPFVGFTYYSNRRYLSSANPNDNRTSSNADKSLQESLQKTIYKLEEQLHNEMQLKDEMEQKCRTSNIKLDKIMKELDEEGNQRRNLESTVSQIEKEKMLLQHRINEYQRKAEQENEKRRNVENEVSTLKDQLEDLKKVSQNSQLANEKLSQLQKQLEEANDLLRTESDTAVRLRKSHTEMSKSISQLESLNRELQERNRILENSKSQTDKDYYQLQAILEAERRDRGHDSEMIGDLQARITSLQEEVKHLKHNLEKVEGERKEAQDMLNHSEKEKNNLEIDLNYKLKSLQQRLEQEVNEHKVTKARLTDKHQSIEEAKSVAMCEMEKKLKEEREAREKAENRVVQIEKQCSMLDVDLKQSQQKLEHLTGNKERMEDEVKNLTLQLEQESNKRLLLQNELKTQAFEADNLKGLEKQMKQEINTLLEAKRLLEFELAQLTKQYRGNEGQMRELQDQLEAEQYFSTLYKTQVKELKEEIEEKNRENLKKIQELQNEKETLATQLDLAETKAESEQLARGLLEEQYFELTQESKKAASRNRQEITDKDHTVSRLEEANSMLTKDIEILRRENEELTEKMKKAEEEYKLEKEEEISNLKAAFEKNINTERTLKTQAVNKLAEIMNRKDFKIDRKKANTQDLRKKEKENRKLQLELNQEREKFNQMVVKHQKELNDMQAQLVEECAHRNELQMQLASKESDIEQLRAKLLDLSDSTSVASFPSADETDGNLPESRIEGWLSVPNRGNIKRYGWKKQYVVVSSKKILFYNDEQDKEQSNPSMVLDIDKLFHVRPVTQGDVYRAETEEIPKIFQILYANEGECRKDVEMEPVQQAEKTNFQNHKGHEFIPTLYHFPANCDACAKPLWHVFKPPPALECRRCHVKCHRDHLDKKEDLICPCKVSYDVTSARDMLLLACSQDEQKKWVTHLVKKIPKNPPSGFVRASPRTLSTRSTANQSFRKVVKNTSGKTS
# [3] = molecular target: T1, Rho-associated protein kinase 2; assay: Inhibition of recombinant human GST-tagged ROCK2 (1 to 552 residues) using myelin basic protein as substrate incubated for 30 mins by ADP-Glo assay
# Target sequence in this assay (O75116 whole entry, the tested form may be a part): as the sequence (O75116 whole entry, looked up, the tested form may be a part) above
# [4] = test system: MDA-MB-231; assay: Inhibition of cell migration of human MDA-MB-231 cells at 1 uM incubated for 24 hrs; assay type: functional, cell-based
# [5] = test system: MDA-MB-231; assay: Cytotoxicity against human MDA-MB-231 cells assessed as reduction in cell viability at 5 uM incubated for 12 hrs by CellTiter-Blue assay; assay type: cell-based; conditions: mda-mb-231, 12 h
# [6] = molecular target: T1, Rho-associated protein kinase 2; assay: Inhibition of human ROCK2 using KEAKEKRQEQIAKRRRLSSLRASTSKSGGSQK as substrate incubated for 20 mins in presence of [gamma33P]ATP by filter binding method
# Target sequence in this assay (O75116 whole entry, the tested form may be a part): as the sequence (O75116 whole entry, looked up, the tested form may be a part) above
# [7] = molecular target: T2, Rho-associated protein kinase 1; assay: Inhibition of human ROCK1 using KEAKEKRQEQIAKRRRLSSLRASTSKSGGSQK as substrate incubated for 20 mins in presence of [gamma33P]ATP by filter binding method
# [8] = molecular target: T2, Rho-associated protein kinase 1; assay: Binding affinity to ROCK1 (unknown origin) incubated for 1 hrs by qPCR analysis
# [9] = molecular target: T1, Rho-associated protein kinase 2; assay: Binding affinity to ROCK2 (unknown origin) incubated for 1 hr by qPCR analysis
# Target sequence in this assay (O75116 whole entry, the tested form may be a part): as the sequence (O75116 whole entry, looked up, the tested form may be a part) above
# [10] = Cytotoxicity against human MDA-MB-231 cells assessed as cell viability at 10 uM incubated for 12 hrs by CellTiter-Blue assay relative to control; assay type: cell-based; conditions: read-out: Activity
# [11] = Cytotoxicity against human MDA-MB-231 cells assessed as cell viability at 10 uM incubated for 24 hrs by CellTiter-Blue assay relative to control; assay type: cell-based; conditions: read-out: Activity
SMILES,inhibition [1],other results
OB(O)c1ccc(-c2nc3ccc4[nH]ncc4c3c3c2CCCC3)cc1,Active,–
OB(O)c1ccc(-c2nc3ccc4[nH]ncc4c3c3c2CCCC3)cc1F,Active,–
c1csc(-c2nc3ccc4[nH]ncc4c3c3c2CCCC3)c1,Active,–
c1cc(-c2nc3ccc4[nH]ncc4c3c3c2CCCC3)cs1,Active,–
OB(O)c1ccc(-c2nc3ccc4[nH]ncc4c3c3c2CCCC3)o1,Active,–
COc1nc(N[C@H]2CC[C@H](N)CC2)c(F)cc1C(N)=O,–,IC50 [2]: 10 nM; IC50 [3]: 7.8 nM
c1nc2ccc3[nH]ncc3c2c2c1CCCC2,10 to 15%,–
Cc1ccc(C(=O)OCc2ccc([C@@H](CN)C(=O)Nc3ccc4cnccc4c3)cc2)c(C)c1,–,inhibition [4]: inactive; Activity [5]: Toxic
OB(O)c1csc(-c2nc3ccc4[nH]ncc4c3c3c2CCCC3)c1,Active,–
Cc1n[nH]c2ccc3nc(-c4sccc4B(O)O)c4c(c3c12)CCC4,Active,–
OB(O)c1cccc(-c2nc3ccc4[nH]ncc4c3c3c2CCCC3)c1,Active,–

# Continued, in another order:
inhibition [1],SMILES,other results
Active,COc1ccc(-c2nc3ccc4[nH]ncc4c3c3c2CCCC3)cc1B(O)O,–
Active,OB(O)c1cccc(-c2nc3ccc4[nH]ncc4c3c3c2CCCC3)c1F,–
10 to 15%,COc1c(B(O)O)cccc1-c1cc(-c2ccc(F)c(Cl)c2)c2c(ccc3[nH]ncc32)n1,–
10 to 15%,OB(O)c1ccc(-c2cc(-c3ccc(F)c(Cl)c3)c3c(ccc4[nH]ncc43)n2)cc1F,–
10 to 15%,COc1c(B(O)O)cccc1-c1cc(-c2cc(F)cc(F)c2)c2c(ccc3[nH]ncc32)n1,–
Active,OB(O)c1cccc(-c2nc3ccc4[nH]ncc4c3cc2-c2ccccc2)c1F,–
Active,COc1c(B(O)O)cccc1-c1nc2ccc3[nH]ncc3c2cc1-c1ccncc1,–
Active,COc1c(B(O)O)cccc1-c1nc2ccc3[nH]ncc3c2cc1-c1ccc(Cl)cc1,–
59%,COc1c(B(O)O)cccc1-c1nc2ccc3[nH]ncc3c2c2c1CCC2,"IC50 [6]: 0.51 nM; IC50 [7]: 1.22 nM; Kd [8]: 1.5 to 1.8 nM; Kd [9]: 1.2 to 1.3 nM; inhibition [4]: Active; viability at 12 h, 10 µM [10]: 75 to 80%; viability at 24 h, 10 µM [11]: 60 to 63%"
Active,OB(O)c1cccc(-c2nc3ccc4[nH]ncc4c3cc2-c2ccc(F)c(Cl)c2)c1F,–
Active,COc1c(B(O)O)cccc1-c1nc2ccc3[nH]ncc3c2cc1C,–
32%,COc1c(B(O)O)cccc1-c1nc2ccc3[nH]nc(C)c3c2c2c1CCC2,–
